In patent US9861735B2, “Extracorporeal perfusion apparatus” (Fresenius Medical Care Deutschland GmbH, priority 2012, dated 2018):
Where “and” joins values, the source holds several entries; their conditions need not be identical. Equal entries are not always repeated.

Assays:
[1] = offset at least in part by the necessary higher dosing; cited from earlier work
[2] = test system: LPS (L-7018 Pseud. aerug.); assay: PMB desorption over time: LPS inactivation by PMB-coated HPR10 in plasma (LAL test); format: biochemical, Pseudomonas aeruginosa; conditions: PMB-coated HPR10 carrier, 1% in LPS-spiked plasma (5 ng/ml), 37° C.
Experimental: The PMB solution (Sigma, 10 mg/ml in dist. water) is autoclaved at 121° C. for 30 min, and the carrier (HPR10) is then coated in 15 ml Greiner tubes with PMB as follows (see Table 10.2): 3 ml carrier with 7.5 ml PMB solution
The coating is carried out overnight on a roll mixer at room temperature. The coated carrier is then washed twice with 10 ml NaCl solution (sterile), and a 50% suspension is produced. A tube without adsorber was included as control.
The plasma with 5 IU heparin is spiked with 5 ng/ml LPS (L-7018 Pseud. aerug. company Sigma batch: 128K4115). In the triplicate approach, 1% PMB-coated carrier is incubated with the LPS-spiked plasma (30 μl carrier+2970 μl LPS spiked plasma) at 37° C. in an overhead shaker and samples were taken at intervals (5, 15 and 60 min) for LAL analysis.
The analysis was performed using an LAL test.

[3] = test system: LPS Pseudomonas aeruginosa; assay: Endotoxin batch (batch test I), LAL test, LPS from Pseudomonas aeruginosa in plasma; format: biochemical; conditions: for LAL EU/ml: plasma + 0.5 ng/ml LPS, incubation 60 min, 37° C.
Experimental: (§1) 9 blood-sampling tubes (each measuring 9 ml) spiked with 5 IU heparin are removed from a donor. The plasma is centrifuged off and the cell pellet incubated on a roll mixer. The plasma is spiked with endotoxin (LPS) and used for batch test I:
LPS: Pseudomonas aeruginosa (L-7018 company Sigma batch: 128K4115, −70° C., at 100 μl 10−3 g/ml (1 mg/ml))
(§2) The LPS is used in the batch with a final concentration 0.5 ng/ml. The tests are carried out in 3 ml pyrogen-free glass vials. In batch test I, different PMB concentrations (company. Sigma, P-1004) are added in the duplicate approach and are incubated for 60 min on an overhead shaker at 37° C. (see Table 3.5).
(§3) In batch test 1, PMB concentrations with 0 (without PMB), 10, 100, 250, 500 and 1000 ng/ml are used. Sterile PMB solutions (autoclaved pyrogen-free at 121° C., 90 min) are produced for this purpose with the following concentrations (Table 3.3):
(§4) The endotoxins are measured in the form of EU/ml with the aid of a Limulus Amebocyte Lysate test (LAL) by Charles River.

[4] = PMB clearance (dialyser, depletion agent, patient) for dosing calculation; conditions: specified example
Text: The following calculation example, besides the PMB patient clearance, also takes into consideration the clearance of a dialyser (dialysis filter) arranged in the extracorporeal blood circuit and the clearance of the carrier of the depletion agent. The calculation example presupposes an existing PMB serum concentration. This is provided by administration of a bolus prior to the start of the treatment, wherein the injection solutions described under Example 4 can be used for this purpose.
For the calculation of the dosing of polymyxin B via infusion in the extracorporeal blood circuit at a lipid feed point, the PMB clearance of the patient body, of the dialyser and of the depletion agent are taken into consideration: • The PMB dialysis clearance (CDial) can be determined experimentally and is dependent on the plasma flow and also on the dialysis filter type used. In the specified example, this is 60 ml/min. • The PMB clearance of the depletion agent (Cads) is dependent on the carrier material used and also on the filtrate flow.
The PMB total clearance (Ctotal) is given by addition from the individual PMB clearance rates. The resultant decrease of PMB is illustrated in FIG. 16. […]

blood cells = assay: Cytokine batch (batch test II): cytokine distribution by blood cells; format: cell-based; conditions: LPS (E. coli)-spiked plasma, 4 hours incubation
Experimental: The plasma spiked with LPS and PMB is fed back following batch test 1 to the cell concentrate obtained from the blood donor in the ratio 1:1 (see Table 3.5). For the cytokine batch, the samples from batch test I were used with a PMB concentration of 0 (without PMB), 250, 500 and 1000 ng/ml. As control, a sample without LPS and with 1000 ng/ml PMB was included. Following the incubation times of 4 h and 12 h at 37° C. on a roll mixer (5 revolutions/min), samples were taken, centrifuged off and 50 μl plasma were frozen at −80° C. for the subsequent cytokine quantification.

LPS E. coli = assay: Endotoxin batch (batch test I), LAL test, LPS from E. coli in plasma; format: biochemical; conditions: for LAL EU/ml: plasma + 0.5 ng/ml LPS, incubation 60 min, 37° C.
Experimental: as §1, §2, §3, §4

[5] = patient, specified example; cited from earlier work
[6] = PMB concentration in the plasma 50 to 300 ng/ml (0.05 to 0.3 μg/ml)

Substance	nephrotoxicity comparison (in words) [1]	LPS inactivation after 5 minutes compared with after 60 minutes of incubation [2]	LAL EU/ml ([3]; PMB 10 ng/ml)	LAL EU/ml ([3]; PMB 100 ng/ml)	LAL EU/ml ([3]; PMB 250 ng/ml)	LAL EU/ml ([3]; PMB 500 ng/ml)	LAL EU/ml ([3]; PMB 1000 ng/ml)	inhibition of LPS from Pseudomonas aeruginosa [3, 6]	PMB clearance of the depletion agent (Cads) ([4]; dependent on carrier material and filtrate flow)	PMB dialysis clearance (CDial) ([4]; dependent on plasma flow and dialysis filter type)	inhibition of the cytokine distribution (TNF-alpha, IL-1beta, IL-6, IL-8) (blood cells; very low PMB concentrations (250, 500, 1000 ng/ml))	inhibition of the key mediator TNF-alpha (blood cells; very low PMB concentrations)	LAL EU/ml (LPS E. coli; PMB 10 ng/ml)	LAL EU/ml (LPS E. coli; PMB 100 ng/ml)	LAL EU/ml (LPS E. coli; PMB 250 ng/ml)	LAL EU/ml (LPS E. coli; PMB 500 ng/ml)	LAL EU/ml (LPS E. coli; PMB 1000 ng/ml)	inhibition of LPS from E. coli (LPS E. coli; [6])	half-life for PMB [5]
Colistin	less nephrotoxic than polymyxin B																		
polymyxin B [PMB]		almost the same	0.178 EU/ml and 0.167 EU/ml	0.112 EU/ml and 0.137 EU/ml	0.108 EU/ml and 0.123 EU/ml	0.091 EU/ml and 0.081 EU/ml	0.062 EU/ml and 0.061 EU/ml	strong inhibition	45 mL/min	60 mL/min	strong inhibition	particularly pronounced	0.77 EU/ml and 0.871 EU/ml	0.379 EU/ml and 0.382 EU/ml	0.281 EU/ml and 0.29 EU/ml	0.209 EU/ml	0.154 EU/ml and 0.16 EU/ml	strong inhibition	13.6 h
